In brackets after ≈: the same amount, converted by molar mass. Like-named read-outs stand apart in the source and are kept apart here.
Assays:
[1] = test system: Enterococcus faecalis ATCC 29212; test: MIC, microdilution method; type: cell-based; settings: E. faecalis ATCC 29212, MHB, 24 h, 37 °C, tested 512 to 1 µg/mL
Method: (§1) Non-pathogenic reference strains representing the intestinal microbiome were used for the studies: Escherichia coli K12, Staphylococcus aureus ATCC 25923 and Enterococcus faecalis ATCC 29212. All strains were obtained from the collection of the Department of Microbiology at the Medical University of Wrocław.
(§2) The strains were received from the museum (−80 °C) and grown in tryptic soy broth (TSB, OXOID, Basingstoke, UK) under continuous shaking conditions (MaxQTM6000 incubator shaker, Thermo Scientific, Waltham, MA, USA) at 125 rpm at 37 °C. Then, they were moved to the growth media, namely tryptic soy agar (TSA, OXOID, Basingstoke, UK) and MacConkey agar (MC, Millipore, Darmstadt, Germany) for S. aureus or E. faecalis and E. coli, respectively.
(§3) A fresh 18–24 h culture was used for each study. For this purpose, a culture with a density of 1.5 × 10^8 CFU/mL in Mueller–Hinton broth (MHB, OXOID, Basingstoke, UK) was prepared and used for further microdilution studies.
(§4) The antimicrobial activity of the O-alkyl derivatives of naringenin and their oximes was tested in vitro using the microdilution method, showing the minimum inhibitory concentration (MIC), in accordance with the recommendations of the European Antimicrobial Susceptibility Testing Committee EUCAST [44]. MICs were determined in 96-well microdilution plates. The tests were carried out in MHB medium. The O-alkyl derivatives of naringenin and their oximes were tested in the concentration range of 512 to 1 µg/mL in a geometric process in MHB medium. The final concentration of the test strains in each test well was 5 × 10^5 CFU/mL. MICs were read after 18 h (for E. coli and S. aureus) and 24 h (for E. faecalis) incubation at 37 °C.
(§5) A strain growth control (tested strain in medium), background control for tested compounds (naringenin derivatives in MHB), medium control (only pure MHB) and compound solvent control (DMSO at test compound concentration, strain and MHB) were set for each experiment. Each test was set up with three independent experiments, each as three separate replicates.
(§6) The […], OD600, was measured in a plate reader (ASYS UVM340, BIOCHROM Ltd., Cambridge, UK). The background control of the tested compounds and the clean medium were included in the absorbance results.

Escherichia coli K12 [2] = test: MIC, microdilution method; type: cell-based; settings: Escherichia coli; E. coli K12; MHB, 18 h, 37 °C; tested 512 to 1 µg/mL; read-out: MIC
Method: as §1, §2, §3, §4, §5, §6

[3] = test system: Staphylococcus aureus ATCC 25923; test: MIC, microdilution method; type: cell-based; settings: S. aureus ATCC 25923, MHB, 18 h, 37 °C, tested 512 to 1 µg/mL
Method: as §1, §2, §3, §4, §5, §6

[4] = test system: Enterococcus faecalis ATCC 29212; test: MBC assay; type: cell-based; settings: Enterococcus faecalis, ATCC29212; E. faecalis ATCC 29212; read-out: MBC
Method: (§7) The minimum bactericidal concentration (MBC) was tested for all naringenin derivatives. First, 10 µL of medium was taken from the plate, on which the MIC was determined for the MIC value, the value below and the two values above. This volume was transferred to TSA or MC agar. After 18–24 h (depending on strain) incubation at 37 °C, colonies were counted. The concentration of test compounds at which no bacterial growth was observed was defined as the MBC value. Each experiment was repeated 3 times.

Escherichia coli K12 [5] = test: MBC assay; type: cell-based; settings: Escherichia coli; E. coli K12; read-out: MBC
Method: as §7

[6] = test system: Staphylococcus aureus ATCC 25923; test: MBC assay; type: cell-based; settings: Staphylococcus aureus, ATCC25923; S. aureus ATCC 25923; read-out: MBC
Method: as §7

SRB assay, cytotoxicity [7] = type: cell-based, human; settings: human, HT-29 cells; HT-29, SRB, 24 h exposure, three independent repeats; read-out: Cytotoxicity (IC50 ± SD)
Method: (§8) The HT-29 cells (ATCC, Manassas, VA, USA) were cultured within α-MEM (IIET PAS, Wrocław, Poland) supplemented with 10% fetal bovine serum (Sigma, St. Louis, MO, USA), antimycotic (100 μg/mL penicillin, 100 μg/mL streptomycin and 0.25 μg/mL amphotericin) (Sigma) and 2 mM glutamine (Sigma). The 3T3-L1 cells (ATCC, Manassas, VA, USA) were cultivated using DMEM high-glucose medium (IIET PAS, Wrocław, Poland) supplemented as above. Both cell lines were cultured at 37 °C in an atmosphere of 5% CO2.
(§9) The sulforhodamine B (SRB) assay was performed according to a previously published protocol. Briefly, 1 × 10^4 HT-29 or 5 × 10^3 3T3-L1 cells were seeded into 96-well plates. After attaching to the plate surface, the cells were incubated with 100, 75, 50, 25, 10 or 1 µg/mL of the investigated compounds for 24 h. After this time, proteins were precipitated with trichloroacetic acid and stained with SRB. The absorbance was measured at 560 nm using a GloMax Discover Microplate Reader (Promega, Madison, WI, USA).

SRB assay, cytotoxicity [8] = type: cell-based, mouse; settings: mouse, 3T3-L1 cells; 3T3-L1, SRB, 24 h exposure, three independent repeats; read-out: Cytotoxicity (IC50 ± SD)
Method: as §8, §9

HT-29 cells [9] = test: MTT assay, cell viability; type: cell-based, human; settings: 24 h; for effect on colon adenocarcinoma cells (viability, MTT): HT-29, highest concentration 100 µg/mL; for reduction in cell viability: HT-29, MTT, 10 µg/mL dose
Method: as §8
First, 1 × 10^4 HT-29 cells or 5 × 10^3 3T3-L1 cells were seeded into a 96-well plate and incubated for one night. Then, cells were treated with different concentrations of the investigated compounds within 24 h. Afterwards, the medium was replaced with a fresh medium containing 0.5 mg/mL of 3-(4,5-dimethylthiazol-2-yl)-2,5-diphenyl-2H-tetrazolium bromide (MTT, Sigma) and incubated for 2 h at 37 °C. After removing the medium, the formazan salts were dissolved in dimethyl sulfoxide (DMSO, Sigma), and the absorbance of the solution was measured at 560 nm using a plate reader.

HT-29 cells [10] = test: SRB assay, cytotoxicity; type: cell-based, human; settings: HT-29, SRB, up to 100 µg/mL
Method: as §8, §9

[11] = Enterococcus faecalis, ATCC29212, read-out: MIC
[12] = Staphylococcus aureus, ATCC25923, read-out: MIC

SMILES | MIC [1, 11] [µg/mL] | MIC (Escherichia coli K12 [2]) [µg/mL] | MIC [3, 12] [µg/mL] | MBC [4] [µg/mL] | MBC (Escherichia coli K12 [5]) [µg/mL] | MBC [6] [µg/mL] | IC50 at 24 h (SRB assay, cytotoxicity [7]) [µg/mL] | IC50 at 24 h (SRB assay, cytotoxicity [8]) [µg/mL] | effect on colon adenocarcinoma cells (viability, MTT) (HT-29 cells [9]) | melting point [°C] | MIC [1] | effect on the proliferation of the HT-29 cell line (HT-29 cells [10]) | MIC [3] | reduction in cell viability (HT-29 cells [9])
CCCCCCCCCOc1cc(O)c2c(c1)O[C@H](c1ccc(O)cc1)CC2=O [A7, 7-O-Nonylnaringenin] | 16 (≈ 40.2 µM) | > 512 | 16 (≈ 40.2 µM) | > 512 | > 512 | > 512 | 15 ± 0.41 (≈ 37.7 µM) | 8.65 ± 0.71 (≈ 21.7 µM) | completely inhibited | 115 to 116 | – | – | – | –
CCCCCCCOc1ccc([C@@H]2CC(=NO)c3c(O)cc(OCCCCCCC)cc3O2)cc1 [B4, 7,4′-Di-O-heptylnaringenin oxime] | > 512 | > 512 | > 512 | > 512 | > 512 | > 512 | > 100 | > 100 | – | 82 to 83 | >512 (>512) µg/mL | no effect on the proliferation | – | –
CCCCCCCCOc1ccc([C@@H]2CC(=NO)c3c(O)cc(OCCCCCCCC)cc3O2)cc1 [B6, 7,4′-Di-O-octylnaringenin oxime] | > 512 | > 512 | > 512 | > 512 | > 512 | > 512 | > 100 | > 100 | – | 85 to 86 | >512 (>512) µg/mL | no effect on the proliferation | – | –
CCCCCCCCCOc1ccc([C@@H]2CC(=NO)c3c(O)cc(OCCCCCCCCC)cc3O2)cc1 [B8, 7,4′-Di-O-nonylnaringenin oxime] | > 512 | > 512 | > 512 | > 512 | > 512 | > 512 | > 100 | > 100 | – | 87 to 88 | >512 (>512) µg/mL | no effect on the proliferation | – | –
CCCCCCCCOc1cc(O)c2c(c1)O[C@H](c1ccc(O)cc1)CC2=O [A5, 7-O-Octylnaringenin] | 16 (≈ 41.6 µM) | > 512 | 8 (≈ 20.8 µM) | > 512 | > 512 | > 512 | 14.63 ± 0.13 (≈ 38.1 µM) | 8.86 ± 0.67 (≈ 23 µM) | completely inhibited | 111 to 113 | – | – | – | –
CCCCCCCOc1cc(O)c2c(c1)O[C@H](c1ccc(O)cc1)CC2=O [A3, 7-O-Heptylnaringenin] | 32 (≈ 86.4 µM) | > 512 | 16 (≈ 43.2 µM) | > 512 | > 512 | > 512 | 14.2 ± 0.56 (≈ 38.3 µM) | 7.61 ± 1.2 (≈ 20.5 µM) | completely inhibited | 114 to 115 | – | – | – | –
CCCCCCCCCOc1ccc([C@@H]2CC(=O)c3c(O)cc(OCCCCCCCCC)cc3O2)cc1 [A8, 7,4′-Di-O-nonylnaringenin] | 512 (≈ 976 µM) | > 512 | 512 (≈ 976 µM) | > 512 | > 512 | > 512 | > 100 | > 100 | weak | 70 to 71 | 512 (>512) µg/mL | no effect on the proliferation | 512 (>512) µg/mL | –
CCCCCCOc1cc(O)c2c(c1)O[C@H](c1ccc(O)cc1)CC2=O [A1, 7-O-hexylnaringenin] | 16 (≈ 44.9 µM) | > 512 | 16 (≈ 44.9 µM) | > 512 | > 512 | > 512 | 14.3 ± 0.84 (≈ 40.1 µM) | 10.8 ± 1.1 (≈ 30.4 µM) | completely inhibited | – | – | – | – | –
CCCCCCCOc1cc(O)c2c(c1)O[C@H](c1ccc(O)cc1)CC2=NO [B3, 7-O-Heptylnaringenin oxime] | 16 (≈ 41.5 µM) | > 512 | 64 (≈ 166 µM) | 512 (≈ 1330 µM) | > 512 | 128 (≈ 332 µM) | 11.3 ± 0.81 (≈ 29.3 µM) | 7.77 ± 1.11 (≈ 20.2 µM) | – | 186 to 187 | – | – | – | more than 50%
CCCCCCCCCCCOc1ccc([C@@H]2CC(=NO)c3c(O)cc(OCCCCCCCCCCC)cc3O2)cc1 [B10, 7,4′-Di-O-undecylnaringenin oxime] | > 512 | > 512 | > 512 | > 512 | > 512 | > 512 | > 100 | > 100 | – | 95 to 96 | >512 (>512) µg/mL | no effect on the proliferation | – | –
CCCCCCCCCOc1cc(O)c2c(c1)O[C@H](c1ccc(O)cc1)CC2=NO [B7, 7-O-Nonylnaringenin oxime] | 8 (≈ 19.3 µM) | > 512 | 128 (≈ 310 µM) | > 512 | > 512 | > 512 | 11.2 ± 1.27 (≈ 27.2 µM) | 6.08 ± 0.64 (≈ 14.7 µM) | – | 176 to 178 | – | – | – | more than 50%
CCCCCCCCOc1cc(O)c2c(c1)O[C@H](c1ccc(O)cc1)CC2=NO [B5, 7-O-Octylnaringenin oxime] | 16 (≈ 40.1 µM) | > 512 | 256 (≈ 641 µM) | 256 (≈ 641 µM) | > 512 | > 512 | 9.96 ± 1.13 (≈ 24.9 µM) | 7.1 ± 1.57 (≈ 17.8 µM) | – | 183 to 185 | – | – | – | more than 50%
CCCCCCOc1cc(O)c2c(c1)O[C@H](c1ccc(O)cc1)CC2=NO [B1, 7-O-hexylnaringenin oxime] | 16 (≈ 43.1 µM) | > 512 | 8 (≈ 21.5 µM) | 256 (≈ 689 µM) | > 512 | 32 (≈ 86.2 µM) | 11.3 ± 1.63 (≈ 30.5 µM) | 8.3 ± 0.72 (≈ 22.3 µM) | – | – | – | – | – | more than 50%

From PMC10298275, “Antiproliferative Activity and Impact on Human Gut Microbiota of New O-Alkyl Derivatives of Naringenin and Their Oximes” (International Journal of Molecular Sciences, 2023)
